Laboratory results: the CheMixHub ionic liquid set
Where “and” joins values, the source holds several entries; their conditions need not be identical. Equal entries are not always repeated.

Assay: xn = mol fraction of the nth substance listed

CC(CC(C)(C)C)CP(=O)([O-])CC(C)CC(C)(C)C.CCCCCCCCCCCCCC[P+](CCCCCC)(CCCCCC)CCCCCC + O
100 kPa
Conditions	viscosity [mPa·s]
298.15 K, x1 = 0.1299	139
323.15 K, x1 = 0.7943	264

CC(O)C(=O)[O-].CCOCCn1cc[n+](C)c1 + O
100 kPa
Conditions	electrical conductivity [S/m]	viscosity [mPa·s]
293.15 K, x1 = 0.8093	0.292	70.03
293.15 K, x1 = 0.8365	0.261	74.7
293.15 K, x1 = 0.9017	0.2	85.7
298.15 K, x1 = 0.8702	0.276	60.47
303.15 K, x1 = 0.938	0.274	52.44
308.15 K, x1 = 0.8093	0.498	31.76
308.15 K, x1 = 0.8365	0.464	33.56
308.15 K, x1 = 0.8702	0.43	35.75
318.15 K, x1 = 0.9017	0.617	22.56

CCCCCCCC(=O)[O-].CCCCCC[NH+](CCCCCC)CCCCCC + O
298.15 K, 101 kPa
Conditions	viscosity
x1 = 0.3915	15.08 mPa·s and 15.76 mPa·s
x1 = 0.7748	20.5 mPa·s and 21.52 mPa·s

CCCCCCCCCC[n+]1ccn(C)c1.[Br-] + O
electrical conductivity [S/m], 101 kPa
Conditions	296 K	301 K	306 K	311 K	316 K
x1 = 0.0001622	–	–	–	–	0.0606
x1 = 0.0002342	–	–	–	–	0.0892
x1 = 0.0002522	0.0652	–	–	0.0827	–
x1 = 0.0003423	0.0864	–	0.1	0.107	0.117
x1 = 0.0003603	–	0.0919	–	–	–
x1 = 0.0004503	0.102	0.11	0.118	0.131	0.14
x1 = 0.0005763	0.125	0.134	0.141	0.155	0.168
x1 = 0.0007023	0.141	0.152	0.162	0.175	0.191
x1 = 0.0008462	–	0.172	–	–	0.223
x1 = 0.0008642	0.163	–	0.188	0.202	–
x1 = 0.001026	0.176	0.186	0.205	0.221	0.248
x1 = 0.001206	0.195	0.204	0.223	0.243	0.272
x1 = 0.001422	0.205	0.22	0.237	0.254	0.291
x1 = 0.001673	0.216	0.23	0.257	0.271	0.309
x1 = 0.00196	0.234	0.24	0.263	0.28	0.323
x1 = 0.002301	–	–	0.274	0.293	0.34
x1 = 0.002319	–	0.251	–	–	–

298.15 K, 100 kPa, frequency 5e-05 MHz
Conditions	electrical conductivity [S/m]
x1 = 0.0003459	0.175
x1 = 0.0003945	0.199
x1 = 0.0004629	0.235
x1 = 0.0004917	0.249
x1 = 0.0005259	0.265
x1 = 0.0005781	0.289
x1 = 0.0006231	0.31
x1 = 0.0006537	0.325
x1 = 0.0006861	0.34
x1 = 0.0007311	0.36
x1 = 0.0007563	0.37
x1 = 0.0007922	0.374
x1 = 0.0009038	0.387
x1 = 0.000938	0.391
x1 = 0.0009775	0.395
x1 = 0.001044	0.403
x1 = 0.001082	0.407
x1 = 0.001118	0.41
x1 = 0.001152	0.414
x1 = 0.001206	0.422

CCCCCC[N+](CC)(CC)CC.O=S(=O)([N-]S(=O)(=O)C(F)(F)F)C(F)(F)F + O
101 kPa, x2 = 0.1627
Conditions	viscosity [mPa·s]
293.25 K	79.3
308.05 K	44.04

CCCCCC[n+]1ccn(C)c1.F[P-](F)(F)(F)(F)F + O
101 kPa, x2 = 0.22
Conditions	electrical conductivity [S/m]	viscosity [mPa·s]
293.15 K	–	269
295.15 K	0.1	–

CCCC[P+](C)(CCCC)CCCC.COS(=O)(=O)[O-] + O
Conditions	viscosity [mPa·s]
298.15 K, 100 kPa, x1 = 0.004192	1.135

CCCC[n+]1ccn(C)c1.O=S(=O)([N-]S(=O)(=O)C(F)(F)F)C(F)(F)F + O
Conditions	electrical conductivity [S/m]	viscosity [mPa·s]
298 K, 101 kPa, x2 = 0	–	50.4
298 K, 101 kPa, x2 = 0.0227	0.427	–
298 K, 101 kPa, x2 = 0.0272	0.442	–
298 K, 101 kPa, x2 = 0.0915	0.472	–
298 K, 101 kPa, x2 = 0.1024	0.498	–
333.15 K, 100 kPa, x2 = 0.257	–	10.68
343.15 K, 100 kPa, x2 = 0.257	–	8.479
353.15 K, 100 kPa, x2 = 0.257	–	6.903

CC[n+]1ccn(C)c1.O=S(=O)([O-])O + O
viscosity [mPa·s]
Conditions	293.15 K	298.15 K	303.15 K	308.15 K	313.15 K	318.15 K
100 kPa, x1 = 0.0005421	1.046	0.929	0.824	0.75	0.678	–
100 kPa, x1 = 0.0009002	1.05	0.94	0.84	0.76	0.69	0.65
100 kPa, x1 = 0.0009056	1.068	0.949	0.843	0.759	0.684	–
100 kPa, x1 = 0.001263	1.073	0.966	0.866	0.78	0.697	–
100 kPa, x1 = 0.001799	1.07	0.95	0.85	0.77	0.7	0.64
100 kPa, x1 = 0.002696	1.08	0.96	0.86	0.78	0.71	0.64
101 kPa, x1 = 0.0006645	1.023	0.93	0.8234	0.7498	0.6736	–
101 kPa, x1 = 0.0007293	1.036	0.943	0.8247	0.7493	0.6893	–
101 kPa, x1 = 0.0009254	1.064	0.943	0.8439	0.7628	0.6829	–

CCn1cc[n+](C)c1.COCCOCCOS(=O)(=O)[O-] + O
101 kPa
Conditions	electrical conductivity [S/m]
298.2 K, x2 = 0.4	0.3
298.2 K, x2 = 0.6	0.51
313.2 K, x2 = 0.2	0.46
313.2 K, x2 = 0.8	1.63
328.2 K, x2 = 0.4	0.92
338.2 K, x2 = 0.2	1.05
338.2 K, x2 = 0.6	1.77
338.2 K, x2 = 0.8	2.97
343.2 K, x2 = 0.8	3.28
348.2 K, x2 = 0.2	1.36
348.2 K, x2 = 0.4	1.51
353.2 K, x2 = 0.6	2.39
353.2 K, x2 = 0.8	3.93
